Data as given in patent US7704976B2, “Use of N-acetyl-D-glucosamine for preparing medicines for urogenital tract infection's treatment and prevention” (Third Military Medical University, Chinese People's …, priority 2002, dated 2010).

What was measured:
candida albicans = experiment: Clinic test, candida albicans patients; type: in vivo, human; conditions: 2% aerosol topically sprayed to infected areas
Protocol: (§1) • 1. 170 patients suffering various venereal diseases were picked out, including 50 patients suffering gonorrhea, 50 patients suffering syphilis, 20 patients suffering condyloma acuminatum virus infection, 40 patients suffering trichomonas vaginalis infection, and 10 patients suffering candida albicans. 2% N-acetyl-D-glucosamine aerosol was topically sprayed to infected areas, and the effects of the compound of formula (I) for treatment of urogenital tract infections were determined by smearing and microscopic examination, and by isolation and culture.
(§2) Observation of therapeutical effect of N-acetyl-D-glucosamine for treatment of urogenital tract infections

bacteria = experiment: Test of suppressing bacteria; type: cell-based
Description: (§3) III. Tests of Effect for Suppressing Bacterial Transplantation
(§4) • 1. Test of effect for suppressing bacillus pyocyaneus transplantation on skin • 2. Test of suppressing bacteria

Gonorrhea = experiment: Clinic test, gonorrhea patients; type: in vivo, human; conditions: 2% aerosol topically sprayed to infected areas
Protocol: as §1, §2

Syphilis = experiment: Clinic test, syphilis patients; type: in vivo, human; conditions: 2% aerosol topically sprayed to infected areas
Protocol: as §1, §2

Proteus Mirabilis = experiment: Promoting wave test (bio-wave model on LB plate); type: cell-based; conditions: final concentration of 0.5% on LB plate, 37° C.
Description: 1. […] 1.3 Experimental Method:

[1] = tested on: trichomonas vaginalis infection; experiment: Clinic test, trichomonas vaginalis infection patients; type: in vivo, human; conditions: 2% aerosol topically sprayed to infected areas
Protocol: as §1, §2

bacillus pyocyaneus = experiment: Test of effect for suppressing bacillus pyocyaneus transplantation on skin
Description: as §3, §4

[2] = in vivo
Description: II. Toxicological Test of the Compound of Formula (I), Including:
• 1. Acute toxicity test: including tests of oral administration, intravenous injection administration, and maximum limit amount for administration. • 2. Ames test; • 3. Micronucleus test of mouse bone marrow cell; • 4. Abnormality test of mouse sperm; • 5. Aberration test of mouse testis chromosome; • 6. Chronic lethal test; • 7. Subchronic toxicity (feed for 90 days) test; • 8. Traditional deformity-inducing test.

[3] = tested on: condyloma acuminatum virus infection; experiment: Clinic test, condyloma acuminatum virus infection patients; type: in vivo, human; conditions: 2% aerosol topically sprayed to infected areas
Protocol: as §1, §2

[4] = tested on: various urogenital tract infections

CC(=O)N[C@H]1C(O)O[C@H](CO)[C@@H](O)[C@@H]1O (stereo partly drawn) [N-acetyl-D-glucosamine]
Effective rate (%) (candida albicans): 90% | Ineffective rate (%) (candida albicans): 10% | bactericidal or bacteriostasis effect (bacteria): essentially exhibited no bactericidal or bacteriostasis effect | Effective rate (%) (Gonorrhea): 90% | Ineffective rate (%) (Gonorrhea): 10% | Effective rate (%) (Syphilis): 60% | Ineffective rate (%) (Syphilis): 40% | promoting wave function (ring pattern versus control) (Proteus Mirabilis): many fine waves on each ring emerged | Effective rate (%) [1]: 75% | Ineffective rate (%) [1]: 25% | transplantation and growth of bacillus pyocyaneus (bacillus pyocyaneus): suppressed the transplantation and growth of bacillus pyocyaneus | dosage at which acute toxicosis reaction had not appeared [2]: more than 2 g/kg | Effective rate (%) [3]: 80% | Ineffective rate (%) [3]: 20% | effective rate for treatment of various urogenital tract infections [4]: 79%
